Reference: patent publication US20090253669A1, “Substituted Sulfonamide Compounds” (GRUENENTHAL GmbH, priority 2008, published 2009)

Key:
[1] = target: T1, human B1R receptor (hB1R) (Homo sapiens, UniProt P46663); assay: FLIPR Ca2+ assay on hB1R-transfected CHO K1 cells, antagonistic action; assay type: cell-based; conditions: CHO-K1, 10 μM test substance; agonist Lys-Des-Arg9-bradykinin 0.5 nM; % of maximum achievable inhibition; read-out: hB1R [10 μM] % inhibition
T1 construct: host or cells: CHO K1 cells
T1 sequence (P46663 1-353): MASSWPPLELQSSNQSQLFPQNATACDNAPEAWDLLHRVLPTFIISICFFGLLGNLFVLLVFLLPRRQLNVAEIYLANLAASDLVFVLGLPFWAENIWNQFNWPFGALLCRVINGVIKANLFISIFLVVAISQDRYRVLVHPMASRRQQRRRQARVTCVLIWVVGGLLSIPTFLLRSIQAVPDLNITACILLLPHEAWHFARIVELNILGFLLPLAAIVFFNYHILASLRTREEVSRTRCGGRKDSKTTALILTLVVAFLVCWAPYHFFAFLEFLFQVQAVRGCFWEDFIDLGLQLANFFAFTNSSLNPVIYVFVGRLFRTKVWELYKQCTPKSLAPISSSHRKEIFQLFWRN

[2] = target: T2, B1R receptor of the rat (rB1R) (Rattus norvegicus, UniProt P97583); assay: FLIPR Ca2+ assay on rB1R-transfected CHO K1 cells, antagonistic action; assay type: cell-based; conditions: CHO-K1, 10 μM test substance; agonist Des-Arg9-bradykinin 100 nM; % of maximum achievable inhibition; read-out: rB1R [10 μM] % inhibition
T2 construct: host or cells: CHO K1 cells
T2 sequence (P97583 1-337): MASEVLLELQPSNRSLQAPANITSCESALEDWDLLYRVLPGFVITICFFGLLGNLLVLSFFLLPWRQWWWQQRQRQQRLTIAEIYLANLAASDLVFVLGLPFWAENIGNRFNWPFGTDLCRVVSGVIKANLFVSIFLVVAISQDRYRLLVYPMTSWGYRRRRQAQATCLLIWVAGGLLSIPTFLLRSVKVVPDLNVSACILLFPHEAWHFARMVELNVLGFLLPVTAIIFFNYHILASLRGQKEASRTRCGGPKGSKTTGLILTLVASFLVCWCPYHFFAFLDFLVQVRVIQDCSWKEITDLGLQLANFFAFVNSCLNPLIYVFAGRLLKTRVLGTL

| Structure (SMILES) | inhibition at 10 µM [1] | inhibition at 10 µM [2] |
| --- | --- | --- |
| COc1cc(C)c(S(=O)(=O)N(C)CCOCC(=O)N2CCC(c3ccccc3)(N3CCN(C)CC3)CC2)c(C)c1 [Compound 41, 4-methoxy-N,2,6-trimethyl-N-(2-(2-(4-(4-methylpiperazin-1-yl)-4-phenylpiperidin-1-yl)-2-oxoethoxy)ethyl)benzenesulfonamide] | 103% | 101% |
| CN(CCCC1CCC(c2ccccc2)(N2CCCC2)CC1)C(=O)CC(NS(=O)(=O)c1ccc2ccccc2c1)c1ccccc1 (stereo not shown) [Compound 128, N-methyl-3-(naphthalene-2-sulfonamido)-3-phenyl-N-(3-(4-phenyl-4-(pyrrolidin-1-yl)cyclohexyl)propyl)propanamide] | 98% | 53% |
| Cc1cc(S(=O)(=O)N2CCCCC2CCC(=O)N2CCC(c3cccc(F)c3)(N3CCN(C)CC3)CC2)c(C)cc1Cl (stereo not shown) [Compound 135, 3-(1-(4-chloro-2,5-dimethylphenylsulfonyl)piperidin-2-yl)-1-(4-(3-fluorophenyl)-4-(4-methylpiperazin-1-yl)piperidin-1-yl)propan-1-one] | 104% | 37% |
| CN(CCC1CCC(Cc2ccccc2)(N2CCCC2)CC1)C(=O)COCC1CCc2ccccc2N1S(=O)(=O)c1ccc(Cl)c(Cl)c1 (stereo not shown) [Compound 104, N-(2-(4-benzyl-4-(pyrrolidin-1-yl)cyclohexyl)ethyl)-2-((1-(3,4-dichlorophenylsulfonyl)-1,2,3,4-tetrahydroquinolin-2-yl)methoxy)-N-methylacetamide] | 60% | 82% |
| Cc1cc(S(=O)(=O)N2CCCCC2CCC(=O)N(C)CCC2CCC(Cc3ccccc3)(N3CCCC3)CC2)c(C)cc1Cl (stereo not shown) [Compound 117, N-(2-(4-benzyl-4-(pyrrolidin-1-yl)cyclohexyl)ethyl)-3-(1-(4-chloro-2,5-dimethylphenylsulfonyl)piperidin-2-yl)-N-methylpropanamide] | 103% | 70% |
| COc1cc(C)c(S(=O)(=O)N(C)CCOCC(=O)NC2CCC(Cc3ccccc3)(N3CCOCC3)CC2)c(C)c1 (stereo not shown) [Compound 171, N-(4-benzyl-4-morpholinocyclohexyl)-2-(2-(4-methoxy-N,2,6-trimethylphenylsulfonamido)ethoxy)acetamide] | 75% | 82% |
| CN1CCN(C2(c3cccc(F)c3)CCN(C(=O)COCC3CCc4ccccc4N3S(=O)(=O)c3ccc4ccccc4c3)CC2)CC1 (stereo not shown) [Compound 228, 1-(4-(3-Fluorophenyl)-4-(4-methylpiperazin-1-yl)piperidin-1-yl)-2-((1-(naphthalen-2-ylsulfonyl)-1,2,3,4-tetrahydroquinolin-2-yl)methoxy)ethanone] | 100% | 101% |
| O=C(COC1CCN(S(=O)(=O)c2c(Cl)cc(Cl)cc2Cl)C1)NC1CCC(c2ccccc2)(N2CCCC2)CC1 (stereo not shown) [Compound 178, N-(4-phenyl-4-(pyrrolidin-1-yl)cyclohexyl)-2-(1-(2,4,6-trichlorophenylsulfonyl)pyrrolidin-3-yloxy)acetamide] | 53% | 76% |
| COc1cc(C)c(S(=O)(=O)N(C)CCOCC(=O)N(C)CCCC2CCC(Cc3ccccc3)(N3CCCC3)CC2)c(C)c1 (stereo not shown) [Compound 85, N-(3-(4-benzyl-4-(pyrrolidin-1-yl)cyclohexyl)propyl)-2-(2-(4-methoxy-N,2,6-trimethylphenylsulfonamido)ethoxy)-N-methylacetamide] | 99% | 99% |
| COc1cc(C)c(S(=O)(=O)N(C)CCOCC(=O)N2CCC(CCc3ccccc3)(N3CCN(C)CC3)CC2)c(C)c1 [Compound 87, 4-methoxy-N,2,6-trimethyl-N-(2-(2-(4-(4-methylpiperazin-1-yl)-4-phenethylpiperidin-1-yl)-2-oxoethoxy)ethyl)benzenesulfonamide] | 99% | 98% |
| COc1cc(C)c(S(=O)(=O)N2CCC(OCC(=O)NC3CCC(Cc4ccccc4)(N4CCCCC4)CC3)C2)c(C)c1 (stereo not shown) [Compound 18, N-(4-benzyl-4-(piperidin-1-yl)cyclohexyl)-2-(1-(4-methoxy-2,6-dimethylphenylsulfonyl)pyrrolidin-3-yloxy)acetamide] | 68% | 74% |
| COc1cc(C)c(S(=O)(=O)N2CCCC2COCC(=O)NCC2CCC(Cc3ccccc3)(N3CCOCC3)CC2)c(C)c1 (stereo not shown) [Compound 169, N-((4-benzyl-4-morpholinocyclohexyl)methyl)-2-((1-(4-methoxy-2,6-dimethylphenylsulfonyl)pyrrolidin-2-yl)methoxy)acetamide] | 41% | 86% |
| CN1CCN(C2(CCc3ccccc3)CCC(CN(C)C(=O)COCC3CCCN3S(=O)(=O)c3c(Cl)cc(Cl)cc3Cl)CC2)CC1 (stereo not shown) [Compound 172, N-methyl-N-((4-(4-methylpiperazin-1-yl)-4-phenethylcyclohexyl)methyl)-2-((1-(2,4,6-trichlorophenylsulfonyl)pyrrolidin-2-yl)methoxy)acetamide] | 98% | 79% |
| CN(C)C1(Cc2ccccc2)CCN(C(=O)COCC2CCc3ccccc3N2S(=O)(=O)c2ccc(Cl)c(Cl)c2)CC1 (stereo not shown) [Compound 36, 1-(4-benzyl-4-(dimethylamino)piperidin-1-yl)-2-((1-(3,4-dichlorophenylsulfonyl)-1,2,3,4-tetrahydroquinolin-2-yl)methoxy)ethanone] | 101% | 101% |
| COc1cc(C)c(S(=O)(=O)N(C)CCOCC(=O)N(C)CCCC2CCC(c3ccccc3)(N3CCCC3)CC2)c(C)c1 (stereo not shown) [Compound 83, 2-(2-(4-methoxy-N,2,6-trimethylphenylsulfonamido)ethoxy)-N-methyl-N-(3-(4-phenyl-4-(pyrrolidin-1-yl)cyclohexyl)propyl)acetamide] | 103% | 99% |
| O=C(COC1CCCN(S(=O)(=O)c2c(Cl)cc(Cl)cc2Cl)C1)NC1CCC(c2ccccc2)(N2CCCC2)CC1 (stereo not shown) [Compound 194, N-(4-phenyl-4-(pyrrolidin-1-yl)cyclohexyl)-2-(1-(2,4,6-trichlorophenylsulfonyl)piperidin-3-yloxy)acetamide] | 96% | 33% |
| COc1cc(C)c(S(=O)(=O)N(C)CCOCC(=O)N2CCC(N)(c3ccccc3)CC2)c(C)c1 [Compound 196, N-(2-(2-(4-Amino-4-phenylpiperidin-1-yl)-2-oxoethoxy)ethyl)-4-methoxy-N,2,6-trimethylbenzenesulfonamide] | 103% | 100% |
| O=C(CC(NS(=O)(=O)c1ccc2ccccc2c1)c1ccccc1)N1CCC(c2ccccc2)(N2CCN(c3ccncc3)CC2)CC1 (stereo not shown) [Compound 98, N-(3-oxo-1-phenyl-3-(4-phenyl-4-(4-(pyridin-4-yl)piperazin-1-yl)piperidin-1-yl)propyl)naphthalene-2-sulfonamide] | 72% | 91% |
| Cc1cc(S(=O)(=O)N2CCCCC2CCC(=O)N2CCC(c3ccc(F)cc3)(N3CCN(C)CC3)CC2)c(C)cc1Cl (stereo not shown) [Compound 138, 3-(1-(4-chloro-2,5-dimethylphenylsulfonyl)piperidin-2-yl)-1-(4-(4-fluorophenyl)-4-(4-methylpiperazin-1-yl)piperidin-1-yl)propan-1-one] | 102% | 28% |
| COc1cc(C)c(S(=O)(=O)N(C)CCOCC(=O)NC2CCC(Cc3ccccc3)(N3CCCCC3)CC2)c(C)c1 (stereo not shown) [Compound 17, N-(4-benzyl-4-(piperidin-1-yl)cyclohexyl)-2-(2-(4-methoxy-N,2,6-trimethylphenylsulfonamido)ethoxy)acetamide] | 86% | 75% |
| COc1cc(C)c(S(=O)(=O)N2CCC(OCC(=O)N(C)CC3CCC(Cc4ccccc4)(N4CCN(C)CC4)CC3)C2)c(C)c1 (stereo not shown) [Compound 174, N-((4-benzyl-4-(4-methylpiperazin-1-yl)cyclohexyl)methyl)-2-(1-(4-methoxy-2,6-dimethylphenylsulfonyl)pyrrolidin-3-yloxy)-N-methylacetamide] | 99% | 78% |
| CN(CCOCC(=O)NC1CCC(Cc2ccccc2)(N2CCCC2)CC1)S(=O)(=O)c1ccc(Cl)cc1Cl (stereo not shown) [Compound 193, N-(4-benzyl-4-(pyrrolidin-1-yl)cyclohexyl)-2-(2-(2,4-dichloro-N-methylphenylsulfonamido)ethoxy)acetamide] | 93% | 34% |
| COc1cc(C)c(S(=O)(=O)N2CCCCC2COCC(=O)N(C)CCC2CCC(c3ccccc3)(N3CCCC3)CC2)c(C)c1 (stereo not shown) [Compound 60, 2-((1-(4-methoxy-2,6-dimethylphenylsulfonyl)piperidin-2-yl)methoxy)-N-methyl-N-(2-(4-phenyl-4-(pyrrolidin-1-yl)cyclohexyl)ethyl)acetamide] | 103% | 100% |
